In this experiment the target is T1, human GPR84 receptor (Homo sapiens, UniProt Q9NQS5).
T1 construct: host or cells: HEK293, transient transfection
Description: Gαi biosensor BRET assay in HEK293 cells (antagonism of ZQ-16). In kind it is cell-based. The conditions noted are these: for inhibition at 2 µM: HEK293, single concentration 2 μM (designated A); for inhibition at 10 µM: HEK293, single concentration 10 μM (designated F); for inhibition at 25 µM: HEK293, single concentration 25 μM (designated I); for IC50: HEK293 cells, antagonism of 200 nmol/L ZQ-16. The procedure, abridged:
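HEK293 cells transiently expressing human GPR84, Gαi2-Rluc8, GFP10-Gγ2 and Gβ1, in Tyrode's buffer pH 7.5. Compounds preincubated 5 min at 37° C, then 200 nmol/L ZQ-16 for 5 min at room temperature; coelenterazine 400A 5 μmol/L. BRET2 acceptor/donor ratio, background- and vehicle-corrected net BRET.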

The structures appear in SMILES notation.

T1 sequence (Q9NQS5 whole entry): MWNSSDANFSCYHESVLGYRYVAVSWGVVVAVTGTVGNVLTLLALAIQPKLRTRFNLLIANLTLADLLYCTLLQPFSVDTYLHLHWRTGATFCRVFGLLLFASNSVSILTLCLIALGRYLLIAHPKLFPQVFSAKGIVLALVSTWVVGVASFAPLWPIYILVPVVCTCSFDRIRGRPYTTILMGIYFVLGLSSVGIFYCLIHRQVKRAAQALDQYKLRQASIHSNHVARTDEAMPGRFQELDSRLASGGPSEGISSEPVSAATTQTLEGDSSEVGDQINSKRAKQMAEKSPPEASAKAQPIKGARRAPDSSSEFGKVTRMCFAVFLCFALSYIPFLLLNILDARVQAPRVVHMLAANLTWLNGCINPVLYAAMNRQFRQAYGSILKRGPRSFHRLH

Turning to `CC(C)Oc1cc(N2CC(C)(C)C2)ccc1-c1cn(CC2CCCCO2)nn1` (centres unmarked) [Compound I-271], the inhibition (commonly the relative decrease from the control value, in per cent) at 2 µM is greater than 75%. Compound `COc1cccc(N(C)c2cn(CC3OCC(C)(C)CO3)nn2)c1` [Compound I-812] had an inhibition at 10 µM of no more than 25%. On the same count and under the same terms, the value for `Cc1cc(N2CCCC(O)C2)ccc1-c1cn(CC2CCCCO2)nn1` (centres unmarked) [Compound I-450] was 25 to 50%; that for `C(#CC1CC1)c1ccc(-c2cn(CC3OCC4(CCC4)O3)nn2)c(OC2CC2)c1` (centres unmarked) [Compound I-798] was greater than 75%. On the same count and under the same terms, the value for `CCc1cc(C#CCNC2CC2)ccc1-c1cn(CC2OCC(C)(C)CO2)nn1` [Compound I-851] was no more than 25%; that for `Cc1cc(N2CCN(Cc3ccccc3)CC2)ccc1-c1cn(CC2CCCCO2)nn1` (centres unmarked) [Compound I-140] was 25 to 50%. Compound `Cc1cc(C#CC2CC2)ccc1-c1cn(CC2CC(F)(F)CO2)nn1` (centres unmarked) [Compound I-489] showed an inhibition at 2 µM of no more than 25%. The compound `C(#CC1CC1)c1ccc(-c2cn(C[C@H]3COCCO3)nn2)cc1` [Compound I-22] showed an inhibition at 25 µM of no more than 25%.

As for `Cc1cc(N2CC3(C2)CN(c2ccccn2)C3)ccc1-c1cn(CC2OCC(C)(C)CO2)nn1` [Compound I-663], the inhibition at 10 µM was greater than 75% and the IC50 (commonly the concentration that inhibits the measured activity by half) was greater than 3000 nM. As for `Cc1cc(C2CCN(Cc3ccccn3)CC2)cnc1-c1cn(CC2CCCCO2)nn1` (centres unmarked) [Compound I-482], the inhibition at 10 µM was no more than 25%. `Cc1ccc(-c2ccc(-c3cn(C[C@H]4CCCO4)nn3)cc2)cn1` [Compound I-31] showed an inhibition at 25 µM of no more than 25%.

`Cc1cc(C#CC2(O)CC2)ccc1-c1cn(CC2CCCCO2)nn1` (centres unmarked) [Compound I-215] displayed an inhibition at 10 µM of 50 to 75%.

Compound `Cc1cc(C#CC2CC2)ccc1-c1cn(CC2CC(F)(F)CCO2)nn1` (centres unmarked) [Compound I-497] yielded an inhibition at 10 µM of 25 to 50%.

The compound `COC(c1cn(CC2CCCCO2)nn1)c1c(C)ccc(C#CC2CC2)c1F` (centres unmarked) [Compound I-656] had an inhibition at 10 µM greater than 75% and a concentration for half-maximal inhibition (IC50) of 300 to 1000 nM. The corresponding values for `CCOC(c1cn(CC2CCCCO2)nn1)c1cc(C#CC2CC2)ccc1C` (centres unmarked) [Compound I-594] are greater than 75% and no more than 300 nM. In turn, `Cc1ccc(C#CC2CC2)cc1Nc1cnn(CC2OCC(C)(C)CO2)n1` [Compound I-759, N-(5-(cyclopropylethynyl)-2-methylphenyl)-2-((5,5-dimethyl-1,3-dioxan-2-yl)methyl)-2H-1,2,3-triazol-4-amine] yielded an inhibition at 10 µM of no more than 25%. The compound `Cc1ccc(N2CCN(Cc3ccccn3)CC2)cc1-c1cn(CC2CCCCO2)nn1` (centres unmarked) [Compound I-564] had an inhibition at 10 µM of no more than 25%. On the same count and under the same terms, the value for `CCn1c(C#CC2CC2)cnc1-c1cn(CC2CCCCO2)nn1` (centres unmarked) [Compound I-285] was greater than 75%. `CC#Cc1ccc(C)c(N(C)c2cn(CC3OCC4(CC4)CO3)nn2)c1` [Compound I-850] returned an inhibition at 10 µM greater than 75%. Same read-out and setting: the value for `COCC#Cc1cnc(-c2cn(CC3OCC(C)(C)CO3)nn2)c(OCC(F)(F)F)c1` [Compound I-847] was no more than 25%; that for `CC1(C)CN(c2ccc(-c3cn(CC4CCCCO4)nn3)c(Cl)c2)C1` (centres unmarked) [Compound I-254] was 25 to 50%. Take `COC(c1cccc(C#CC2CC2)c1)c1cn(CC2CCCCO2)nn1` (centres unmarked) [Compound I-490]: the inhibition at 10 µM was greater than 75% and the 50% inhibitory concentration (IC50) was 300 to 1000 nM. For the compound `Cc1cc(N2CC(C)(CO)C2)cnc1-c1cn(CCc2ncccn2)nn1` [Compound I-695], the inhibition at 10 µM was no more than 25%. On the same count and under the same terms, the value for `Cc1cc(N2CCC(C)(C)C2)cnc1-c1cn(CC2CCCCO2)nn1` (centres unmarked) [Compound I-555] was no more than 25%. For the compound `C(#CC1CC1)c1ccc(-c2cn(CC3CCOCC3)nn2)cc1` [Compound I-40], the inhibition at 25 µM lay within 25 to 50%.

The compound `COC(=O)C1(C)CN(c2ccc(-c3cn(CC4CCCCO4)nn3)c(C)c2)C1` (centres unmarked) [Compound I-409] returned an inhibition at 10 µM of 25 to 50%. Same read-out and setting: the value for `C(#CC1CC1)c1ccc(Cc2cn(CC3CCCCO3)nn2)cc1` (centres unmarked) [Compound I-298] was 25 to 50%; that for `Cc1cc(N2CCN(Cc3ccccn3)C(=O)C2)ccc1-c1cn(CC2OCC(C)(C)CO2)nn1` [Compound I-752] was 25 to 50%; that for `Cc1cc(N2CC(C)(F)C2)ccc1-c1cn(CC2CCCCO2)nn1` (centres unmarked) [Compound I-519] was 25 to 50%. Same read-out and setting: the value for `Cc1cc(C#CCNc2ccccc2)cnc1-c1cn(C[C@H]2CCCCO2)nn1` [Compound I-394] was greater than 75%. Turning to `Cc1cc(N2CCN(Cc3ccccn3)CC2)ccc1-c1cn(C[C@H]2CCCCO2)cn1` [Compound I-671], the inhibition at 10 µM is greater than 75% and the IC50 is 1000 to 3000 nM.

The compound `Cc1cc(C#CCN2CCCC2C(=O)O)ccc1-c1cn(CC2CCCCO2)nn1` (centres unmarked) [Compound I-247] showed an inhibition at 10 µM of no more than 25%. Still for that read-out and setting: the value for `CC1(C)CN(c2ccc(-c3cn(CC4CCCCO4)nn3)c(OCCO)c2)C1` (centres unmarked) [Compound I-280] was greater than 75%. Compound `Cc1ccc(C#CC2CC2)cc1Cc1cn(C[C@H]2CCCCO2)nn1` [Compound I-587] had an inhibition at 10 µM of 50 to 75% and a half-maximal inhibitory concentration (IC50) of 300 to 1000 nM.

`CCc1cc(N2CC(C)(O)C2)ccc1-c1cn(CC2OCC(C)(C)CO2)nn1` [Compound I-641] registered an inhibition at 10 µM greater than 75% and an IC50 of 300 to 1000 nM. On the same counts, the results for `Cc1cc(N2CC(C)(OCc3ccccn3)C2)c(F)cc1-c1cn(CC2CCCCO2)nn1` (centres unmarked) [Compound I-731] are greater than 75% and 300 to 1000 nM.

Consider `Cc1cc(C#CC2CC2)ccc1-c1cn(C[C@H]2CCCCO2)nn1` [Compound I-175], for which the half-maximal inhibitory concentration (IC50) was 1000 to 3000 nM. Where the note is “HEK293, single concentration 5 μM (designated D)”, this compound came in with an inhibition at 5 µM of 50 to 75%. In the case of `C(#CC1CC1)c1ccc(-c2cn(C[C@H]3CCCO3)nn2)cc1` [Compound I-27], the inhibition at 25 µM lay within 25 to 50% and the IC50 was greater than 3000 nM.

The compound `Cc1cc(C#CCN2CCCN(C)CC2)ccc1-c1cn(CC2CCCCO2)nn1` (centres unmarked) [Compound I-159] returned an inhibition at 10 µM of no more than 25%. `Cc1cc(C#CCNC(=O)OCc2ccccc2)ccc1-c1cn(CC2CCCCO2)nn1` (centres unmarked) [Compound I-608] gave an inhibition at 10 µM greater than 75% and an IC50 of 300 to 1000 nM. The compound `Cc1cc(C#CC2CC2)ccc1-c1cnn(CC2CCCCO2)c1` (centres unmarked) [Compound I-324] yielded an inhibition at 25 µM of no more than 25%.

`Cc1ccc(-c2ccc(-c3ncn(CC4CCCCO4)c3C)cc2)cn1` (centres unmarked) [Compound I-340] showed an inhibition at 10 µM of 25 to 50%. Turning to `C(#CC1CC1)c1ccc(-n2cc(CC3CCCO3)nn2)cc1` (centres unmarked) [Compound I-295], the inhibition at 25 µM was no more than 25%. `Cc1cc(C#CC2CC2)ccc1-c1cn(CC2CC(C)(C)CO2)nn1` (centres unmarked) [Compound I-226] returned an inhibition at 10 µM greater than 75% and an IC50 of 1000 to 3000 nM.

As for `Cc1cc(C#CC2CC2)ccc1-c1cn(CC23CCC(CC2)CO3)nn1` [Compound I-509], the inhibition at 2 µM was no more than 25%. On to `Cc1cc(N2CCN(Cc3ccccn3)CC2)ccc1-c1cn(CC2CC(C)(C)O2)nn1` (centres unmarked) [Compound I-561], for which the inhibition at 10 µM is greater than 75% and the half-inhibitory concentration (IC50) is greater than 3000 nM.

In the case of `Cc1cc(C(=O)NCC2CC2)ccc1-c1cn(CC2CCCCO2)nn1` (centres unmarked) [Compound I-357], the inhibition at 10 µM lay within 50 to 75%. `COC(Cc1cc(C#CC2CC2)ccc1C)c1cn(CC2OCC(C)(C)CO2)nn1` (centres unmarked) [Compound I-753] registered an inhibition at 10 µM greater than 75%. With `CN(C)c1cc(N2CC(C)(CO)C2)c(F)cc1-c1cn(CC2OCC3(CCC3)O2)nn1` (centres unmarked) [Compound I-786], the inhibition at 10 µM was greater than 75% and the concentration for half-maximal inhibition (IC50) lay within 300 to 1000 nM. `CC(O)(c1cccc(C#CC2CC2)c1)c1cn(CC2CCCCO2)nn1` (centres unmarked) [Compound I-496] yielded an inhibition at 10 µM of 25 to 50%. `CCc1cc(C#CCOC)ccc1-c1cn(CC2OCC(C)(C)CO2)nn1` [Compound I-770]: the IC50 was no more than 300 nM.

Take `Cc1cc(N2CCCC23CN(C)C3)ccc1-c1cn(CC2CCCCO2)nn1` (centres unmarked) [Compound I-151]: the inhibition at 10 µM was no more than 25%. `C=C(c1cn(C[C@H]2CCCCO2)nn1)c1cccc(C#CC2CC2)c1C` [Compound I-742]: the inhibition at 10 µM was greater than 75%. On the same count and under the same terms, the value for `Cc1cc(C#CC2CC2)cnc1-c1cn(Cc2ncccn2)nn1` [Compound I-453] was no more than 25%; that for `CNC1CN(c2ccc(-c3cn(CC4CCCCO4)nn3)c(C)c2)C1` (centres unmarked) [Compound I-184] was no more than 25%.

Take `Cc1cc(N2CCN(Cc3cncnc3)CC2)ccc1-c1cn(CC2CCCCO2)nn1` (centres unmarked) [Compound I-566]: the inhibition at 10 µM lay within 25 to 50%. `C(#CC1CC1)c1ccc(-c2cn(CC3CCCCO3)nn2)s1` (centres unmarked) [Compound I-38] yielded an inhibition at 25 µM of 50 to 75%. On to `Cc1cc(C#CC2CC(F)(F)C2)ccc1-c1cn(CC2CCCCO2)nn1` (centres unmarked) [Compound I-640], for which the inhibition at 10 µM was greater than 75%. Still for that read-out and setting: the value for `CN(C)c1cc(N2CC3(COC3)C2)ccc1-c1cn(CC2OCC3(CC3)CO2)nn1` [Compound I-853] was no more than 25%. Still for that read-out and setting: the value for `C(#CC1CC1)c1ccc(-c2cn(CC3OCCCO3)nn2)cc1` [Compound I-102] was 25 to 50%. On the same count and under the same terms, the value for `Cc1ccc(-c2ccc(C3CN(CC4CCCCO4)C(=O)O3)c(C)c2)cn1` (centres unmarked) [Compound I-406, 5-(2-methyl-4-(6-methylpyridin-3-yl)phenyl)-3-((tetrahydro-2H-pyran-2-yl)methyl)oxazolidin-2-one] was no more than 25%. As to `Cc1ccccc1-c1cn(CC#Cc2cnc(-c3cn(CC4CCCCO4)nn3)c(C)c2)nn1` (centres unmarked) [Compound I-734], the inhibition at 10 µM is greater than 75% and the concentration for half-maximal inhibition (IC50) fell in the range of 300 to 1000 nM. `CC(c1ccnc(C#CC2CC2)c1)c1cn(CC2CCCCO2)nn1` (centres unmarked) [Compound I-699] came in with an inhibition at 10 µM of no more than 25%.

Regarding `Cc1cc(C#CC2CC2)ccc1-c1cn(Cc2nccs2)nn1` [Compound I-314], the inhibition at 10 µM lay within 25 to 50%. Same read-out and setting: the value for `Cc1cc(C#CC2CC2)ccc1-c1nn(C[C@H]2CCCCO2)nc1C` [Compound I-345] was no more than 25%.

These data come from patent publication US12617777B2, “GPR84 antagonists and uses thereof” (Liminal BioSciences Limited, priority 2021, dated 2026).
